Holding throughout (type): cell-based
One assay deals with Staphylococcus aureus. As to the kind of experiment: MIC, CLSI dilution antibacterial susceptibility test. To be noted: read-out: Minimal Inhibitory Concentration (MIC). Here is the method:
(§1) The measures of activities were conducted on compound NOC1 from Nocardia terpenica following the protocol recommended by the Clinical and Laboratory Standards Institute (CLSI)—Clinical and Laboratory Standards Institute (CLSI, formerly NCCLS): Methods for Dilution Antibacterial Susceptibility Tests for Bacteria That Grow Aerobically; Approved Standard—Tenth Edition (2015). Clinical and Laboratory Standards Institute Document M07-A10.
(§2) The measures of activities were conducted on compounds A, B and C, following the protocol recommended by the Clinical and Laboratory Standards Institute (CLSI)—Clinical and Laboratory Standards Institute (CLSI, formerly NCCLS):
(§3) Methods for Dilution Antibacterial Susceptibility Tests for Bacteria That Grow Aerobically; Approved Standard—Tenth Edition (2015). Clinical and Laboratory Standards Institute Document M07-A10.

Another assay has as its system Enterococcus faecium. The description is as above. As for the experimental part: as §1, §2, §3
In the next assay the test system is Candida glabrata. As to the kind of experiment: MIC, extended antimicrobial activities (fungi). To be noted: Nakaseomyces glabratus; Candida glabrata DSMZ6425.
The next assay relates to Candida albicans. As to the kind of experiment: MIC, extended antimicrobial activities (fungi). To be noted: Candida albicans ATCC10231.
For a further assay, the system named is Enterococcus faecalis. Briefly: MIC, CLSI dilution antibacterial susceptibility test. As for the experimental part:
as §1

In a further assay the test system is Bacillus subtilis. The assay is described as above. To be noted: Bacillus subtilis ATCC6633. Here is the method: as §1
Another assay relates to Cryptococcus neoformans. Briefly: MIC, extended antimicrobial activities (fungi). To be noted: Cryptococcus neoformans DSMZ6972.
The subject of another assay is Candida krusei. Briefly: MIC, extended antimicrobial activities (fungi). To be noted: Pichia kudriavzevii; Candida krusei DSMZ6128.
For another assay, the system named is Candida parapsilosis. As to the kind of experiment: MIC, extended antimicrobial activities (fungi). To be noted: Lodderomyces parapsilosis; Candida parapsilosis DSMZ5784. As for the experimental part: as §1
The test system of another assay is Candida tropicalis. Briefly: MIC, extended antimicrobial activities (fungi). To be noted: Candida tropicalis DSMZ11953. As for the experimental part:
as §1

Converted amounts (≈) assume the structure as drawn. Where two headings read alike, the source gives them in different places.

On to `CCC(C)C1NC(=O)C(NC(=O)C(C)NC(=O)/C=C/C=C/CC/C=C/CCCCN/C(=N/C)NC)CC2(CS/C=C\NC(=O)CNC(=O)C(CC(N)=O)NC2=O)NC(=O)C(CO)NC1=O` (stereo not shown) [NOC1], for which the MIC was 16 µg/mL (≈ 17.2 µM) in the assay with Staphylococcus aureus (S. aureus ATTC 1683 (ATCC1683), methicillin resistant); 2 µg/mL (≈ 2.15 µM) in the assay on Staphylococcus aureus (S. aureus ATTC 13709 (ATCC13709), fully susceptible / methicillin sensitive); 2 µg/mL (≈ 2.15 µM) with Staphylococcus aureus (S. aureus ATTC 25923 (ATCC25923), methicillin sensitive); 60 µg/mL (≈ 64.4 µM) in the assay on Staphylococcus aureus (S. aureus USA300, methicillin resistant); 8 µg/mL (≈ 8.59 µM) in the assay with Enterococcus faecium (Enterococcus faecium ATCC19434, vancomycin sensitive); 16 µg/mL (≈ 17.2 µM) in the assay with Enterococcus faecium (Enterococcus faecium ATCC51559, vancomycin resistant (gene vanA)). Besides, the MIC against Enterococcus faecium (Enterococcus faecium ATCC51858, vancomycin resistant (gene vanB)) came out at 16 µg/mL (≈ 17.2 µM); in the assay with Candida glabrata it was 12 µg/mL (≈ 12.9 µM); against Candida albicans, 3 µg/mL (≈ 3.22 µM); in the assay on Enterococcus faecalis (Enterococcus faecalis ATCC29212, vancomycin sensitive) it was 160 µg/mL (≈ 172 µM); in the assay with Enterococcus faecalis (Enterococcus faecalis ATCC700802, vancomycin resistant (gene vanB)) it was 16 µg/mL (≈ 17.2 µM); against Bacillus subtilis it was 2 µg/mL (≈ 2.15 µM). In addition, the MIC was found to be 24 µg/mL (≈ 25.8 µM) in the assay on Cryptococcus neoformans, 12 µg/mL (≈ 12.9 µM) against Candida krusei, 24 µg/mL (≈ 25.8 µM) in the assay on Candida parapsilosis and 6 µg/mL (≈ 6.44 µM) against Candida tropicalis.
